Assay results from ChEMBL document CHEMBL4130404, “Lamellodysidines A and B, Sesquiterpenes Isolated from the Marine Sponge Lamellodysidea herbacea” (J Nat Prod, 2017).
Activity calls are given as the source filed them.

Tests used:
Macrophage [1] = experiment: Inhibition of cholesterol ester accumulation in macrophages (unknown origin); format: functional, cell-based
Macrophage [2] = experiment: Inhibition of RANKL-induced formation of multinuclear osteoclasts in macrophages (unknown origin); format: functional, cell-based
Homo sapiens [3] = species: Homo sapiens; experiment: Inhibition of ubiquitin/proteasome (unknown origin)
[4] = target: T1, Ubiquitin-like modifier-activating enzyme 1 (Homo sapiens) (UniProt P22314); experiment: Inhibition of ubiquitin/ubiquitin-activating enzyme E1 (unknown origin)
T1 sequence (whole entry): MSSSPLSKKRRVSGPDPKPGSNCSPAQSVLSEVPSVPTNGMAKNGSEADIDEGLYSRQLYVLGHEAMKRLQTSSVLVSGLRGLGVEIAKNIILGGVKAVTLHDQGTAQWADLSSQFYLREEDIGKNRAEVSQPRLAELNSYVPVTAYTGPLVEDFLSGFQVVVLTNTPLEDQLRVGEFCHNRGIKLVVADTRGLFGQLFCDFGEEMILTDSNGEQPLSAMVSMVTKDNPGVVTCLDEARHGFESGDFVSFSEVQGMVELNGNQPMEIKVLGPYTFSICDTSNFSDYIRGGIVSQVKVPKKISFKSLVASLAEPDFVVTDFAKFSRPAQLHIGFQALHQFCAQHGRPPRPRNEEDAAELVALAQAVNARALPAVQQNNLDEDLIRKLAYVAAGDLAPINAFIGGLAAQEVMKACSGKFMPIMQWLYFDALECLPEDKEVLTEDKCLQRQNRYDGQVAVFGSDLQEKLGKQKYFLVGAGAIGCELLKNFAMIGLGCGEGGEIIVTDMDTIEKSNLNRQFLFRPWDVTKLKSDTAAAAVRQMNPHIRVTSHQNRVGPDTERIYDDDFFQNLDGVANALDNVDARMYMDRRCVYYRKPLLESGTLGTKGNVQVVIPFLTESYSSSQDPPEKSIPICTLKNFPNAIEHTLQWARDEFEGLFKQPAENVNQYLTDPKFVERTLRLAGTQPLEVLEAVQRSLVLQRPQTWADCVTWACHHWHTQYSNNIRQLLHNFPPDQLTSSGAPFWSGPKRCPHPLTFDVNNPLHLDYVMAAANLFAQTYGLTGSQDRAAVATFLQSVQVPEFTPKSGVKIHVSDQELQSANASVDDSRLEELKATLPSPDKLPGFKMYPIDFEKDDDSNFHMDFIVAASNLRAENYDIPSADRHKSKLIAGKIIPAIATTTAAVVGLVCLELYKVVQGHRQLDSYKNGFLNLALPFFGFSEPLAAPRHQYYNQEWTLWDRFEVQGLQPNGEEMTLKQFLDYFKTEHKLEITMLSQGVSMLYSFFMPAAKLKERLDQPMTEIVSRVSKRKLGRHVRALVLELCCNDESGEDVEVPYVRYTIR

Homo sapiens [5] = species: Homo sapiens; experiment: Inhibition of ubiquitin/Ubc13/Uev1A (unknown origin)
[6] = target: Tumour suppressor p53/oncoprotein Mdm2 (Homo sapiens) (UniProt P04637+Q00987); experiment: Inhibition of ubiquitin/p53/Mdm2 (unknown origin); format: protein assay
[7] = target: Ubiquitin carboxyl-terminal hydrolase 7 (Homo sapiens) (UniProt Q93009); experiment: Inhibition of ubiquitin/USP7 (unknown origin)

Measured: inhibition

Ubiquitin carboxyl-terminal hydrolase 7 (Homo sapiens), sequence (Q93009 whole entry, looked up): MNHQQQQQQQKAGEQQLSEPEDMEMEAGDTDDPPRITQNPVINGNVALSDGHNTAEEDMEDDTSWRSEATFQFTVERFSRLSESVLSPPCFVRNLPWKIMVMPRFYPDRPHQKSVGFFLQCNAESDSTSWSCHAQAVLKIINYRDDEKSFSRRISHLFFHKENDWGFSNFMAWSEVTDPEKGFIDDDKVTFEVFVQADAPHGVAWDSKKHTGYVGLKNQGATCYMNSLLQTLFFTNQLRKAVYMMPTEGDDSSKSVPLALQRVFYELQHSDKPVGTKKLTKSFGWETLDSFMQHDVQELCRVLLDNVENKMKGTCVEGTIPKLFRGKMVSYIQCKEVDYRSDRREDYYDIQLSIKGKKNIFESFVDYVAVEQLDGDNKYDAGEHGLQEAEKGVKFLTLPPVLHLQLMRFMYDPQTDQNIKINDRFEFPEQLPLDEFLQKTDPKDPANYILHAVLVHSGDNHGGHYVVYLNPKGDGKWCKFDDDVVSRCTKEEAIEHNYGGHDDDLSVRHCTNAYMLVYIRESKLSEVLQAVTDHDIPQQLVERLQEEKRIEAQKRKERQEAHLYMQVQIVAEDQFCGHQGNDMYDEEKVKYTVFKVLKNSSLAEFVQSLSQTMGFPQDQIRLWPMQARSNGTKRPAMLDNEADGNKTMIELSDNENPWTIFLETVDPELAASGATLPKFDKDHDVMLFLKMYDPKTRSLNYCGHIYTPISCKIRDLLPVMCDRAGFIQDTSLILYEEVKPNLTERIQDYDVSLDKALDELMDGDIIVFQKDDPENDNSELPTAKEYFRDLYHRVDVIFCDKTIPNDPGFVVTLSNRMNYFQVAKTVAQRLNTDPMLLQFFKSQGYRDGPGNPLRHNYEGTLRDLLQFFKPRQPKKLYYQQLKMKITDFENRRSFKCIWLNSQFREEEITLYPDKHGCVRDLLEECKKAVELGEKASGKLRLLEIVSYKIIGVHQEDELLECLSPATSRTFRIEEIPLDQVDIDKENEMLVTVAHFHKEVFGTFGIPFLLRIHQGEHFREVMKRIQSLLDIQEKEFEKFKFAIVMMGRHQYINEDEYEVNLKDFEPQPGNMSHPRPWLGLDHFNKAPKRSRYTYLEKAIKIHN
Tumour suppressor p53/oncoprotein Mdm2 (Homo sapiens), sequence (P04637 whole entry, looked up): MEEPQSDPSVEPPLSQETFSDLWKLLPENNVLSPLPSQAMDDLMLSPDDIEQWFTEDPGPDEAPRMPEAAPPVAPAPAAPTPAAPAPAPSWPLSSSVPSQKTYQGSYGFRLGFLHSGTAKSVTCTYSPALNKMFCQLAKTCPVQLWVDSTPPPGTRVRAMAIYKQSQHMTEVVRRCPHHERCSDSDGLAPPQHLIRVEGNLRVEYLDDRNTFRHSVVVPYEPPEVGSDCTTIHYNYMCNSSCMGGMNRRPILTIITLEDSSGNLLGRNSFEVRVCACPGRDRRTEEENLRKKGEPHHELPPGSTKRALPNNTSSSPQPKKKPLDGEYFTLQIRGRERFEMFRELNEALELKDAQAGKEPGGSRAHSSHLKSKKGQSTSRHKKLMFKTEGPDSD
Tumour suppressor p53/oncoprotein Mdm2 (Homo sapiens), sequence (Q00987 whole entry, looked up): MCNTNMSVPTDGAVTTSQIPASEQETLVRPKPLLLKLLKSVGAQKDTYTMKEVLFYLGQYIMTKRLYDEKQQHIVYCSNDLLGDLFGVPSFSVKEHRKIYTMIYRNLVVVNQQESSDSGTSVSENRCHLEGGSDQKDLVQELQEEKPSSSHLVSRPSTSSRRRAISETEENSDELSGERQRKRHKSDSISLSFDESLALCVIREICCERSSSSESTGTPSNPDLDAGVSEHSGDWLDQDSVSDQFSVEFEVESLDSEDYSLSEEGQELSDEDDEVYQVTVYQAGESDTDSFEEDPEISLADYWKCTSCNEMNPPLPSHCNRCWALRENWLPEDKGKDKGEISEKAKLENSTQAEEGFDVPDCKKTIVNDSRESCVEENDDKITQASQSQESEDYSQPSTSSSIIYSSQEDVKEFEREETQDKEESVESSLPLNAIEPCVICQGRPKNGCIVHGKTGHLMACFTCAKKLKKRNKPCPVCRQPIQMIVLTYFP

CC1C2C=CC3(C)C1(C)CCC31C(=O)O[C@H](O)[C@@H]21 (some centres not stated)
inactive: all assays above
